Source: patent US8927130B2, “Electrolyte for redox flow battery and redox flow battery including the same” (Samsung Electronics Co., Ltd., priority 2011, dated 2015)

Assay: Cyclic voltammetry of electrolytes for 100 cycles
Assay type: physicochemical
Conditions: in the electrolytes of Examples 1 and 2 (GBL, 0.5 M TEABF4), cyclic voltammetry 100 cycles
Procedure: A current value as a function of potential was measured for 100 cycles by using each of the electrolytes of Examples 1 and 2, at a potential scan rate of 10 mV/s and in a potential scan range of about −2 V to about 1.25 V. A cell for measuring the cyclic voltammogram included an Ag/Ag^+ electrode in which 0.3 M of AgNO3 was dissolved in acetonitrile as a solvent as a reference electrode, carbon felt as a working electrode, and platinum as a counter electrode. The measurement results are illustrated in FIGS. 6A and 6B.

O=S(=O)([N-]S(=O)(=O)C(F)(F)F)C(F)(F)F.O=S(=O)([N-]S(=O)(=O)C(F)(F)F)C(F)(F)F.[Ni+2].c1ccc(-c2ccccn2)nc1.c1ccc(-c2ccccn2)nc1.c1ccc(-c2ccccn2)nc1 [Preparation Example 1, Ni(bpy)3(TFSI)2]
stability of the redox couple of the metal salt in the electrolyte: stable
